Results on 2 compounds are retold here after patent US5958943A, “[A]-anellated pyrrole derivatives and their use in pharmacology” (Merckle GmbH, priority 1994, dated 1999).

The target of one experiment is T1, 5-lipoxygenase (Bos taurus, UniProt F1MQ78).
T1 construct: endogenous in cells
T1 sequence (F1MQ78 1-674): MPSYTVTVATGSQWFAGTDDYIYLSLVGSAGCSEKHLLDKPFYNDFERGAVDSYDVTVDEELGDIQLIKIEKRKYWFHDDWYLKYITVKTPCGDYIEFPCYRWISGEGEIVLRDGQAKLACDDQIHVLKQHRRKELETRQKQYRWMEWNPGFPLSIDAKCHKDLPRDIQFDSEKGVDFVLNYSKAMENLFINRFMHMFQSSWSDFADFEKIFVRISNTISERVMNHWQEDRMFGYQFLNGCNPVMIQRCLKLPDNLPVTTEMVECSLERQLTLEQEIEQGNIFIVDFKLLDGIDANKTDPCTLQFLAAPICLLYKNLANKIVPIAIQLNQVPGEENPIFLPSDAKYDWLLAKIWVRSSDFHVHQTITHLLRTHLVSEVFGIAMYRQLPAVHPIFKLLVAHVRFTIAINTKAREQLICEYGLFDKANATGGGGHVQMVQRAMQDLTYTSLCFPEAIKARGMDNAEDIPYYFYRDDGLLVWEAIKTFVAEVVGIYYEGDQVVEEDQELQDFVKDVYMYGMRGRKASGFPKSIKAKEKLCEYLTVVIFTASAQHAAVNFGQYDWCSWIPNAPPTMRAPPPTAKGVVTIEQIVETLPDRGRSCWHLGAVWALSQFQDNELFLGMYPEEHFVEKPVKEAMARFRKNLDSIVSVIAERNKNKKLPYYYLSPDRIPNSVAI
The experiment can be described thus: Inhibition of 5-lipoxygenase (LO), according to Dannhardt et al. The class given is biochemical. Conditions: Table 1 column IC50 LO/CO, first value. The text has this:
(§1) The efficacy of the compounds according to the invention can be determined from the inhibition of 5-lipoxygenase or cyclooxygenase. Experiments have be carried out according to Dannhardt et al., J. Pharm. Pharmacol. 1992, 44: 419-424.

The target in another experiment is T2, cyclooxygenase (Bos taurus, UniProt O62664).
T2 construct: endogenous in cells
T2 sequence (O62664 25-600): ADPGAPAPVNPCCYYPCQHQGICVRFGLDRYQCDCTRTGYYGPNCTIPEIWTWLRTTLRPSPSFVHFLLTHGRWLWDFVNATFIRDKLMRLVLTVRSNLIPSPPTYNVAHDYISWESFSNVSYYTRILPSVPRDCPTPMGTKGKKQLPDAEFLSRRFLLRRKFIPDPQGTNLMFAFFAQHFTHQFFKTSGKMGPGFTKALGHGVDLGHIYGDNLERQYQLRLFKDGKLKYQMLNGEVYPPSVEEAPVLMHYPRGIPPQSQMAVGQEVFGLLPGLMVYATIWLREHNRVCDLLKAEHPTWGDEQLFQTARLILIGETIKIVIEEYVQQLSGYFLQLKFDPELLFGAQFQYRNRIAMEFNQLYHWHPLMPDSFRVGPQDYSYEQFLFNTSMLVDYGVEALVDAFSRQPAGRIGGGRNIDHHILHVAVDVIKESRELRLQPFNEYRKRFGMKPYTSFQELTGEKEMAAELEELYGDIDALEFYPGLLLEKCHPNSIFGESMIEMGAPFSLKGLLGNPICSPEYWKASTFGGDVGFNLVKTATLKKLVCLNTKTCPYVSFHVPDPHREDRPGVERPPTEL
The experiment can be described thus: Inhibition of cyclooxygenase (CO), according to Dannhardt et al. Format: biochemical. Conditions: Table 1 column IC50 LO/CO, second value.
Description: as §1

A further experiment relates to mouse. The experiment can be described thus: Formalin analgesia test in the mouse p.o. The class given is in vivo. From the text:
The spectrum of efficacy of the compounds was also investigated using the following tests:
2) Formalin analgesia test in the mouse p.o., B. Rubin et al., Endocrinol.,49:429-439, 1951;

With `CC1(C)Cc2c(-c3ccccc3)c(-c3ccc(Cl)s3)c(CC(=O)O)n2C1` [Example 1], the results for the half-maximal inhibitory concentration (IC50) against 5-lipoxygenase and on cyclooxygenase were 400 nM and 200 nM, respectively. Further, in the experiment with mouse (in vivo, compared with the corresponding 4-chlorophenyl derivative), the “times more analgesically effective than the corresponding 4-chlorophenyl derivative” value is 10 times.

Consider `CC1(C)Cc2c(-c3ccccc3)c(-c3ccc(Cl)cc3)c(CC(=O)O)n2C1` [corresponding 4-chlorophenyl derivative, reference compound], for which the minimal effective dose in the experiment on mouse (po, formalin analgesia model of the mouse, comparison compound, read-out: MED) is 100 mg/kg.

As a reminder, the IC50 is the point on the concentration scale where inhibition reaches its midpoint.
